Experimental data: US6632794B1, “Insulin-like growth factor agonist molecules” (Genentech, Inc., priority 1997, dated 2003)
Positions of bridges follow the written chain, without caps; N, C: chain ends. Residues, ends and D or L forms follow the SMILES beside them. No end group written: not given here.

How the values were obtained:
IGFBP-3 [1] = target: T1, IGFBP-3 (Homo sapiens, UniProt P17936); test: BIAcore competition assay, IGFBP-3 binding to immobilized IGF-I; details: 40 nM IGFBP-3; 400 to 800 RU immobilized IGF-I; read-out: BIAcore Assay IC50, inhibition of IGF-I binding to IGFBP-3
Protocol: A. BIAcore™ Competition Assay (for IGFBP-3 Binders)
IGF-I was immobilized on a dextran chip for inhibition assays using a BIAcore™ 2000 surface-plasmon-resonance device (BIAcore, Inc., Piscataway, N.J.) to measure free binding protein. […] Serial dilutions of peptide were mixed with a constant concentration (40 nM) of IGFBP-3. After incubation for >1 hour at room temperature, an aliquot of 20 μL was injected at a flow rate of 20 μL/min over the IGF-I chip. Following the injection, a response reading was taken to measure the relative amount of IGFBP-3 bound to the IGF-I.

IGFBP-3 [2] = target: T1, IGFBP-3; test: BIAcore competition assay, IGFBP-3 binding to immobilized IGF-II; details: 20 nM IGFBP-3; approximately 1500 RU immobilized IGF-II; read-out: IC50, inhibition of IGFBP-3 binding to IGF-II (BIAcore)
Protocol: D. BIAcore™ Competition Assay (for IGFBP-3 Binders)
IGF-II was immobilized on a dextran chip for inhibition assays using a BIAcore™ 2000 surface-plasmon-resonance device (BIAcore, Inc., Piscataway, N.J.) to measure free binding protein. IGF-II was biotinylated as described above, and injected over a chip to which streptavidin had been coupled (BIAcore, Inc.) to give approximately 1500 RU of immobilized IGF-II. […] Serial dilutions of peptide were mixed with a constant concentration (20 nM) of IGFBP-3. After incubation for ≧1 hour at room temperature, an aliquot of 20 μl was injected at a flow rate of 20 μl/min over the IGF-II chip. Following the injection, a response reading was taken to measure the relative amount of IGFBP-3 bound to the IGF-II.

IGFBP-1 [3] = target: T2, IGFBP-1 (Homo sapiens, UniProt P08833); test: Biotin-BP plate (ELISA) assay, biotinylated IGFBP-1 binding to IGF-I; details: C-terminal bp1-01 variants by ELISA
T2 construct: biotin (chemical label, EZ-LINK NHS-SS-Biotin)
T2 sequence (P08833 26-259): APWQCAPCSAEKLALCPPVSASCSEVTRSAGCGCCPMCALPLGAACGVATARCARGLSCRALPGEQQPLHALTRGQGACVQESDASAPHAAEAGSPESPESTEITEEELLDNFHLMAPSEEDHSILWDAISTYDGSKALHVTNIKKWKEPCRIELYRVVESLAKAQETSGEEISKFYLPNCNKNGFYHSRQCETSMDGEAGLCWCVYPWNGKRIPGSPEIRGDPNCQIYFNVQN
Protocol: 1. Biotin-BP Assay (for IGFBP-1 Binders)
For inhibition of IGFBP-1 binding, IGFBP-1 (as well as IGFBP-3 as a control) were biotinylated as described above. MAXISORP™plates were coated and blocked as described above, using 2 μg/mL IGF-I. In a separate plate, serial dilutions of peptide were premixed with a constant concentration (20 nM) of biotinylated IGFBP-1. After 20 min. at room temperature, the mixture was added to the IGF-I plate. The peptide/IGFBP mix was then removed and the plate was washed ten times with PBS buffer containing 0.05% TWEEN-20™ surfactant. Bound biotin-IGFBP-1 was then detected using streptavidin-conjugated horse radish peroxidase, and a chromogenic substrate.
A second series of peptides made use of non-natural amino acids to probe whether other structural features such as an added methyl group at the alpha carbon, or an isomer (D-alanine) could affect peptide binding to IGFBP-1.
(§1) Substitutions at the N-terminus or C-terminus yielded affinity improvements. […] All of these peptides had similar or improved apparent affinity for IGFBP-1 as compared with bp1-01 and bp1-02 and are thus expected to increase the availability of IGF-I in an in vitro cell culture assay.

IGFBP-1 [4] = target: T2, IGFBP-1; test: BIAcore competition assay, IGFBP-1 binding to IGF-I; details: for IGF-I Inhibition IC50 (114)/IC50 (mut) / IGF-I Inhibition IC50 (116)/IC50 (mut): g3 bp1-01 selectants by BIAcore, higher = better; for IGF-I Inhibition IC50 (114)/IC50 (mut): relative to bp1-14; for IGF-I Inhibition IC50 (116)/IC50 (mut): relative to bp1-16
Protocol: Two series of synthetic peptide variants were generated to determine which side chains of the bp1-01 peptide might contribute directly to binding IGFBP-1. In the first series an alanine-scanning approach (Cunningham and Wells, Science, 244: 1081-1085 (1989)) was used to remove that portion of each side chain beyond the beta carbon. The contribution of these atoms to the free energy of binding of the peptide to IGFBP-1 was then assessed by measuring the potency (IC50) of the variant for inhibiting IGFBP-1 binding to IGF-I or IGF-II in a BIAcore™competition assay, analogous to that described for IGFBP-3 (see Example 7).
as §1

dwarf rats = test: Long-term administration to GH-deficient dwarf (dw/dw) rats; format: in vivo, rat
Description: Young female dwarf rats (11-12 wk of age, 115-140 g) were bred by homozygous mating (Charles Rivers Laboratories) and delivered to the Genentech Animal House where they were housed five per cage on polystyrene chips and fed a standard animal chow and water ad libitum, and kept in a room of constant humidity and with controlled temperature and lighting. The animals were weighed, and based on uniformity of body weight, 37 of the animals were selected and randomized into treatment groups and cages to give six treatment groups of equal initial body weights (approximately 120 g).
The study consisted of six groups of rats with six or seven rats per group.
The mutant (Leu^24,Ala^31)hIGF-I and native sequence recombinant human IGF-I were administered by osmotic minipumps (ALZET 2001™, Alza, Palo Alto, Calif.) which were placed in a subcutaneous tunnel in the dorsal neck region while the rats were anesthetized with KETAMINE/XYLAZINE™ anesthesia. The pumps were filled with solutions so that the calculated daily dose was 120 μg per rat per day (1 mg/kg/day), assuming that the pump delivered as per the manufacturer's description (24 μl of solution per day).
Recombinant human GH (50 μg/day) was administered for eight days by twice daily sc injection, with each injection being of 25 μg in a volume of 100 μl.
Body weights were measured daily in the morning. After 8 days the animals were anesthetized using CO2 and exsanguinated by cardiac puncture. The remaining blood was allowed to clot and serum was separated and stored for further analysis.
(§2) Spleen, thymus, heart, liver, kidney, and perirenal fat were removed and weighed. The tibia was removed and fixed in neutral buffered formalin for histological measurement of epiphyseal plate width.
Serum chemistries were measured using a TECHNICON CHEM I PLUS™ analyzer. Serum insulin concentration was measured using an RIA kit supplied by Linco, Inc. To measure the IGF-I concentrations the serum was extracted using acid ethanol and the supernatant diluted to neutrality and assayed for IGF-I by RIA. The concentration of rat IGF-I in serum extract was measured by RIA using a kit from Diagnostic Systems Laboratories, Inc. Human IGF-I concentration was measured by RIA at Genentech, Inc.
Tibia were sectioned longitudinally, stained with TOLULENE BLUE™ stain and mounted on microscope slides. The tibial epiphyseal plate width was measured using an ocular micrometer attached to a microscope.
Data were analyzed statistically by analysis of variance using one-factor ANOVA followed by Duncan's Range Test.

hypophysectomized rats = test: Long-term administration to hypophysectomized rats; format: in vivo, rat; details: one week
Description: Young female SD rats were hypophysectomized at Taconic Laboratories and delivered several days later. The rats were then weighed frequently and those whose weight increased or decreased by more than 7 grams between 2 and 3 weeks following hypophysectomy were excluded from the study. Twenty-five rats were grouped randomly into five groups based on their body weight, and then randomly assigned to cages, with four rats per cage. The animals were allowed ad libitum access to food and water and housed in a room controlled for temperature and lighting.
1) Excipient pump, excipient injections;
2) (Leu^24,Ala^31)hIGF-I (10 μg/day, by SC minipump), excipient injections;
3) (Leu^24,Ala^31)hIGF-I (50 μg/day, by SC minipump), excipient injections;
4) Recombinant human GH (NUTROPIN™ brand from Genentech, Inc., 20 μg/day, by SC injection, two injections each of 10 μg/day), excipient minipump; or
5) (Leu^24,Ala^31)hIGF-I (50 μg/day, by SC minipump) plus recombinant human GH (20 μg/day, by SC injection, two injections each of 10 μg/day).
The rats were dosed for one week.
The mutant (Leu^24,Ala^31)hIGF-I was administered by osmotic minipumps (ALZET 2001™, Alza, Palo Alto, Calif.), which were placed in a subcutaneous tunnel in the dorsal neck region of the rats while they were anesthetized with KETAMINE™/XYLAZINE™ anesthesia. The pumps were filled with solutions so that the calculated daily dose was 50 μg or 10 μg, assuming that 24 μl of solution was delivered each day for one week.
Recombinant human GH was administered for one week by twice daily SC injections of 10 μg in 100 μl volume.
Body weights were measured daily in the morning. At the end of the week of dosing the animals were anesthetized via CO2 and exsanguinated via cardiac puncture. The remaining blood was allowed to clot and serum was separated and stored for further analysis.
as §2
Serum chemistries were measured on an automated Chem I analyzer. Serum insulin concentration was measured using an RIA Kit supplied by Linco, Inc. To measure the IGF-I concentrations the serum was extracted using acid ethanol and the supernatant diluted to neutrality and assayed for IGF-I by RIA.
Tibia were sectioned longitudinally, stained with Toluene Blue, and mounted on microscope slides. The tibial epiphyseal plate width was measured using an ocular micrometer attached to a microscope.
Data were analyzed statistically by analysis of variance using one factor and two factor ANOVA.

[5] = serum at sacrifice, 8 days, Means ± SEM

T1 sequence (P17936 28-291): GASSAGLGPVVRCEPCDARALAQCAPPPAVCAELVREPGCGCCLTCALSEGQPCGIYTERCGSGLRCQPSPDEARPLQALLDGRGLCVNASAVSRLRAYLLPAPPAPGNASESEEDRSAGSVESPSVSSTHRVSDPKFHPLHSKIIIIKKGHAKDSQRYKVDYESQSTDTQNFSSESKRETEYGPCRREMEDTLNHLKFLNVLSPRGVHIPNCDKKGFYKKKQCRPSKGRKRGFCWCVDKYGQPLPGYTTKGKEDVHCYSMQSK

CC[C@H](C)[C@@H]1NC(=O)[C@H](Cc2ccc(O)cc2)NC(=O)CNC(=O)[C@H](CCC(N)=O)NC(=O)[C@H](CC(=O)O)NC(=O)[C@H](Cc2c[nH]cn2)NC(=O)[C@H](CCCNC(=N)N)NC(=O)[C@H](CC(=O)O)NC(=O)[C@H](Cc2c[nH]c3ccccc23)NC(=O)[C@@H](NC(=O)[C@@H](NC(=O)[C@H](CCC(=O)O)NC(=O)[C@H](Cc2c[nH]c3ccccc23)NC(=O)[C@H](C)NC(=O)[C@@H](N)C(C)C)C(C)C)CSSC[C@@H](C(=O)N[C@H](C(=O)N[C@H](C(=O)N[C@@H](CC(=O)O)C(=O)N[C@@H](CO)C(=O)O)[C@@H](C)O)[C@@H](C)O)NC1=O [BP3-4D3.11] (H-VAWEVCWDRHDQGYICTTDS-OH; disulfide 6-16; N-terminus and C-terminus assumed)
IC50 (IGFBP-3 [1]): < 10 µM
IC50 (IGFBP-3 [2]): 1 µM

CRAGPLQWLCEK [bp1-17]
IGF-I Inhibition IC50 (mut)/IC50 (wt) (IGFBP-1 [3]): >1000

CC(C)C[C@@H]1NC(=O)[C@H](Cc2c[nH]c3ccccc23)NC(=O)[C@H](CCC(N)=O)NC(=O)[C@H](CC(C)C)NC(=O)[C@@H]2CCCN2C(=O)CNC(=O)[C@H](C)NC(=O)[C@H](CCCNC(=N)N)NC(=O)[C@@H](NC(=O)[C@@H](NC(=O)[C@H](CCCNC(=N)N)NC(=O)[C@H](C)NC(=O)[C@@H](N)CCC(=O)O)C(C)C)CSSC[C@@H](C(=O)N[C@@H](CCC(=O)O)C(=O)N[C@@H](CCCCN)C(=O)N[C@@H](Cc2ccc(O)cc2)C(=O)N[C@@H](Cc2ccccc2)C(N)=O)NC1=O [bp1-20] (H-EARVCRAGPLQWLCEKYF-NH2; disulfide 5-14)
IGF-I Inhibition IC50 (114)/IC50 (mut) (IGFBP-1 [4]): 2.6
IGF-I Inhibition IC50 (116)/IC50 (mut) (IGFBP-1 [4]): 12

CRAGPLQWLCEKYFSTY-nh2 (CRAGPLQWLCEKYFSTY-NH2; disulfide 1-10) [bp1-21B]
affinity improvement compared with bp1-16 (IGFBP-1 [4]; IGFBP-1): ~3 fold

CRAGPLQWLCE [bp1-04]
IGF-I Inhibition IC50 (mut)/IC50 (wt) (IGFBP-1 [3]): >1000

hGH: Recombinant human GH (NUTROPIN brand from Genentech, Inc.)
epiphyseal plate widths (dwarf rats; 8 days): significantly (p<0.05) increased
body weight gain (dwarf rats; Day 5, hGH 50 μg/d, IGF mutant 120 μg/day): 12.4 ± 0.9 g
AST (dwarf rats; [5]): 123 ± 13 U/l
BUN (dwarf rats; [5]): 15.6 ± 0.7 mg/dL
CK (dwarf rats; [5]): 184 ± 29 u/l
Creatinine (dwarf rats; [5]): 0.33 ± 0.02 mg/dL
Glucose (dwarf rats; [5]): 192 ± 10 mg/dL
Insulin (dwarf rats; [5]): 1.48 ± 0.29 ng/mL
body weight gain (hypophysectomized rats; IGF agonist 50 μg/day SC minipump, hGH 20 μg/day SC, or both): significant increase in body weight
absolute thymus weight (hypophysectomized rats; IGF agonist 50 μg/day, hGH 20 μg/day, or both): almost equal
absolute and relative heart weight (hypophysectomized rats; IGF agonist 10 and 50 μg, hGH 20 μg/day, or combination): slightly increased absolute heart weight and caused a fall in relative heart weight
absolute spleen weight (hypophysectomized rats; IGF mutant 10 and 50 μg/day, hGH 20 μg/day, or hGH plus 50 μg/day): greater than that to the IGF agonist
epiphyseal plate width (hypophysectomized rats; rhGH 20 μg/day): around 400 μm

CC(C)C[C@@H]1NC(=O)[C@H](Cc2c[nH]c3ccccc23)NC(=O)[C@H](CCC(N)=O)NC(=O)[C@H](CC(C)C)NC(=O)[C@@H]2CCCN2C(=O)CNC(=O)[C@H](C)NC(=O)[C@H](CCCNC(=N)N)NC(=O)[C@@H](NC(=O)CNC(=O)[C@@H](NC(=O)[C@H](CCC(=O)O)NC(=O)[C@@H](N)CO)C(C)C)CSSC[C@@H](C(=O)N[C@@H](CCC(=O)O)C(=O)N[C@@H](CCCCN)C(=O)N[C@@H](Cc2ccc(O)cc2)C(=O)N[C@@H](Cc2ccccc2)C(=O)N[C@@H](CO)C(=O)N[C@H](C(=O)N[C@@H](Cc2ccc(O)cc2)C(N)=O)[C@@H](C)O)NC1=O [bp1-21A] (H-SEVGCRAGPLQWLCEKYFSTY-NH2; disulfide 5-14)
affinity improvement compared with bp1-14 (18-mer) (IGFBP-1 [4]; IGFBP-1): 3 fold
IGF-I Inhibition IC50 (114)/IC50 (mut) (IGFBP-1 [4]): 3.2
IGF-I Inhibition IC50 (116)/IC50 (mut) (IGFBP-1 [4]): 15
